Assay [1] deals with A2 receptors. The conditions noted are these: vs N^6 -substituted adenosine analogs; cited from earlier work.
The next assay deals with T1, A1 adenosine receptors (Cavia porcellus, UniProt P47745).
T1 construct: The left atria from male guinea pigs were isolated; from tissue; host or cells: guinea pig left atrium
T1 sequence (P47745 1-326): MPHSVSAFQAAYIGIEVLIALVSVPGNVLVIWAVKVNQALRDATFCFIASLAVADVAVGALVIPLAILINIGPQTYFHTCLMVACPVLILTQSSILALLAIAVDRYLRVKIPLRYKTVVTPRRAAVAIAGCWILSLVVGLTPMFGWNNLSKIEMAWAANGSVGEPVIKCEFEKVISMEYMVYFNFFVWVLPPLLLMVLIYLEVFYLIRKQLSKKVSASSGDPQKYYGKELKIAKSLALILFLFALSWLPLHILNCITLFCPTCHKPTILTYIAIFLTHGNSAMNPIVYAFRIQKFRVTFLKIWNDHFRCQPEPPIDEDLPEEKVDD
The assay is described as follows: antagonism of adenosine agonists: reduction in force of contraction of guinea pig atrium (A1). Here is the method: The left atria from male guinea pigs were isolated, suspended between two punctate electrodes, and placed in a 20 ml organ bath that contained Krebs-[…] solution that was continuously gassed with 95% O2 +5% CO2 and maintained at 31° C. The resting tension was one gram. The atria were stimulated electrically at 1 Hz, 1 msec duration pulses at supramaximal voltage. The force of contraction was recorded isometrically. The ability of the compounds to antagonize the effects of agonists was analyzed using modified Schild plots.

For the next assay, the system named is A2 adenosine receptors. Nature of the assay: antagonism of adenosine agonists: decrease in contractile tone of guinea pig taenia caecum (A2). Conditions: for antagonism of the effects of adenosine agonists in relaxing the taenia caecum: modified Schild plots; for sensitization of the tissue (larger agonist response): taenia caecum, high concentrations of the compound. Here is the method: Taenia from the guinea pig caecum were cut into lengths of 1.5-2 cm. The tissues were suspended in a 20 ml organ bath containing de Jalon's solution that was gassed with 95% O2 +5% CO2 and maintained at 31° C. […] The contractile response was measured isotonically. […] The ability of the compounds to antagonize the effects of agonists was analyzed using modified Schild plots.

The target in assay [2] is T2, A1 receptors (Rattus norvegicus, UniProt P25099).
T2 sequence (P25099 1-326): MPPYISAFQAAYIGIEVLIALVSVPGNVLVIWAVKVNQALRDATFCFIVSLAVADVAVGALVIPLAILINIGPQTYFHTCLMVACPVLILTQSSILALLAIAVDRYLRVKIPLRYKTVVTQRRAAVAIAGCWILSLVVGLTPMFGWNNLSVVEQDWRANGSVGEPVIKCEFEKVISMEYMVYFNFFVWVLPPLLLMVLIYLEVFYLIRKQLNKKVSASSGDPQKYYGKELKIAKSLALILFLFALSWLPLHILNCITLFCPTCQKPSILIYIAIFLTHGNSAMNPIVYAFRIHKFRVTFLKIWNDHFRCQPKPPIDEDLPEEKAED
Nature of the assay: in vivo test on heart rate / ECG of anesthetized rats. Here is the method:
(§1) Rats were anesthetized with urethan and blood pressure was monitored via a carotid cannula. Drug injections were made intravenously through a jugular cannula. Blood pressure, EGC, and heart rate were recorded on a Grass polygraph.

Assay [3] relates to A2 receptors. The assay is described as follows: in vivo test on blood pressure of anesthetized rats. The conditions noted are these: prior administration, anesthetized rat. Here is the method:
as §1

Assay [4] deals with T3, rat cortical A1 receptors (Rattus norvegicus, UniProt P25099).
T3 construct: rat cortical membranes were the receptor source; from tissue; host or cells: rat cerebral cortex (male Sprague Dawley) membranes
T3 sequence (P25099 1-326): T2 sequence (P25099 1-326)
Nature of the assay: displacement of [3H]-CHA from rat cortical A1 receptors. The conditions noted are these: [3H]-CHA; rat cortical A1 receptors; read-out: Rat Cortical Binding Constant Ki. The class given is binding. The method, then:
(§2) Varying concentrations of test compounds were incubated with the appropriate radioligand and membrane source for 1 hr at room temperature.
(§3) Assays were terminated by filtration over Whatman GF/B filters that had been pre-soaked with 0.1% polyethyleneimine using a 24 port Brandell cell havester. The filters were washed three times with 3 ml of ice cold buffer and transfered to plastic scintillation vials to which 4 ml of Beckman Ready protein scintillation cocktail was added. The tubes were shaken and counted in a Beckman 3801 scintillation counter that converted cpm to dpm.
(§4) Data were analyzed by utilizing the Ligand, commercial computer program (Munson and Rodbard, 1980).
(§5) Male Sprague Dawley rats were killed by decapitation and the brains removed. The cerebral cortices were homogenized in 50 mm Tris; 2mm MgCl2 (pH 7.4), and centrifuged at 40,000×g for 10 minutes. […] The homogenate was centrifuged, washed once, resuspended to a protein concentration of 5-10 mg/ml and frozen at -70° C. until use.
(Loss of bound radioactivity is the signal in a displacement assay; it reports binding, not function.)

Assay [5] has as its target T4, A2 receptors (Bos taurus, UniProt E1BKU0).
T4 construct: bovine caudate was the source of membranes; from tissue; host or cells: bovine caudate nuclei (membranes)
The assay is described as follows: [3H]-NECA binding, bovine caudate membranes (A2). The conditions noted are these: Table 4, with 50 nM cyclopentyl-adenosine. The method, then:
Further tests to discover the affinities of test compounds at A2 receptors were conducted.
To provide bovine caudate nuclei, bovine brains were obtained fresh from a local slaughterhouse. The caudate nuclei were dissected out and homogenized in Buffer A (50 mm Tris; 1 mm Na2-EDTA; 5 mm KCl; 1 mm MgCl2; 2 mm CaCl2; pH 7.4) using a Brinkman Polytron. The homogenate was centrifuged at 40,000×g for 20 minutes and washed once. The pellet was resuspended in Buffer A, incubated at 37° C. for 15 minutes, then centrifuged. The pellet was washed once more, resuspended to a protein concentration of 5-10 mg/ml in Buffer A and frozen at -70° C. until use.
as §2, §3, §4

Assay [6] concerns the target T2, A1 receptors. Nature of the assay: [3H]-CHA binding, rat cortical membranes (A1), selectivity experiment of Table 4. The arrangement: Rat Brain Membranes; from tissue; host or cells: rat brain (membranes). The method, then:
as §2, §3, §4, §5

In assay [7] the target is T5, A2 receptors (Rattus norvegicus, UniProt P30543).
T5 construct: Rat PC12 Membranes; endogenous in cells; host or cells: PC12
The assay is described as follows: antagonism of NECA-stimulated adenylate cyclase in rat PC12 membranes (B). Type of assay: biochemical.

Assay [8] has as its system adenosine-induced cyclic Amp accumulation in a human fibroblast cell line. Conditions: low concentrations; cited from earlier work.
For assay [9], the target named is T2, A1 receptors. The assay is described as follows: prevention of R-PIA-induced inhibition of adenylate cyclase in rat fat cell membranes (C). More on the design: from tissue. Type of assay: biochemical. Here is the method: (§6) For activity at A1 receptors, compounds were tested as inhibitors of the binding of N^6 -[…]-[3H]-Phenylisopropyladenosine in rat brain membranes and for their ability to prevent R-PIA-induced inhibition of adenylate cyclase in rat fat cell membranes.
(C) Rat Fat Cell Membranes

The target of assay [10] is T2, A1 receptors. The assay is described as follows: inhibition of binding of [3H]-phenylisopropyladenosine in rat brain membranes (D). More on the design: Rat Brain Membranes; from tissue; host or cells: rat brain (membranes). Here is the method:
as §6
(D) Rat Brain Membranes

For a further assay, the system named is adenosine receptor. The conditions noted are these: cited from earlier work.

pKi: −log10 of the molar value. A value given as a limit tells only on which side of the number the result lay.

T5 sequence (P30543 whole entry): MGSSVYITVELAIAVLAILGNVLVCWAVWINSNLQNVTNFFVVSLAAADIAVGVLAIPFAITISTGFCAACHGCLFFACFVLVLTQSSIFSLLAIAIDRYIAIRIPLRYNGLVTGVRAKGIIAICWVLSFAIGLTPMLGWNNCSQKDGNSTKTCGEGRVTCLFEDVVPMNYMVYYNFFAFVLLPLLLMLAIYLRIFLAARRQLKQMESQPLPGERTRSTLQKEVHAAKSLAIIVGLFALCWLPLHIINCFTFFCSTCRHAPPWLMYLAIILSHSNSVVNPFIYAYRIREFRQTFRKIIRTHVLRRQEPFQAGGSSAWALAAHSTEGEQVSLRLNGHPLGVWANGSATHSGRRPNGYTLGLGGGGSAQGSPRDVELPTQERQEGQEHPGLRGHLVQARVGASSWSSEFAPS
T4 sequence (E1BKU0 1-401): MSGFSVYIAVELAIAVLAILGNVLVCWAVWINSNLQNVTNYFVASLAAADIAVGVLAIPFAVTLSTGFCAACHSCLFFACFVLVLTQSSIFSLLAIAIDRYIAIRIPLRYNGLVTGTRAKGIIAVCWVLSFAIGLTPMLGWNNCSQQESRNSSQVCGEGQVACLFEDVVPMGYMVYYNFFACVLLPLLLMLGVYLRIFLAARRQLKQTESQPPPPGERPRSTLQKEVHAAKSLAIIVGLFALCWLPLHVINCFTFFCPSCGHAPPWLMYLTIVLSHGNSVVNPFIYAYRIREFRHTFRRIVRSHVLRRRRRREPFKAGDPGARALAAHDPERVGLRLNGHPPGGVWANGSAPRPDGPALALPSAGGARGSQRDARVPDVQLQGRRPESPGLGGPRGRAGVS

For `CCNC(=O)[C@H]1O[C@@H](n2cnc3c(N)ncnc32)[C@H](O)[C@@H]1O` [NECA, 5'-N-ethylcarboxamido-adenosine], the “potency at A2 receptors” value in the assay with A2 receptors [1] is reported as “more potent than N^6 -substituted analogs”.
`Cn1cnc2c(N[C@H]3C[C@H]4CC[C@@H]3C4)ncnc21` (relative stereo) [compound 0861, N^6-(endo-2-Norbornyl)-9-Methyladenine]: the “potency ranking as antagonist” value at A1 adenosine receptors (among the Table 2 examples) is “the most potent antagonist”. The “competitive antagonism at adenosine receptors in the atria” value on A1 adenosine receptors (guinea pig atria) is listed as “competitive antagonists at adenosine receptors in the atria”. The “selectivity for A1 adenosine receptors (functional tissues)” value with A2 adenosine receptors (atrium (A1) vs taenia caecum (A2)) was “selective for A1 adenosine receptors”. Further, the “antagonism of the effects of adenosine agonists in relaxing the taenia caecum” value with A2 adenosine receptors is “did not competitively antagonize the effects of adenosine agonists in relaxing the taenia caecum”. Besides, the “sensitization of the tissue (larger agonist response)” value in the assay on A2 adenosine receptors was “some sensitization of the tissue”. The cardio-selectivity in vivo entry on A1 receptors [2] was “cardio-selective adenosine receptor antagonist in vivo”. Besides, the “effects of subsequently administered adenosine on all parameters measured (blood pressure, heart rate, P-R interval)” value on A1 receptors [2] (intravenous) is given as “attenuated the effects of subsequently administered adenosine on all parameters measured”. For the same molecule, the “heart block caused by high doses of adenosine” value at A1 receptors [2] (intravenous) is listed as “substantially reduced”. Besides, the “effects of NECA on the heart” value at A1 receptors [2] (prior administration) was “attenuated the effects of NECA on the heart”. The “NECA-induced decrease in blood pressure” value in the assay on A2 receptors [3] is “minimally affecting the NECA-induced decrease in blood pressure”. Moreover, the pKi was 6.94 in assay [4]; 5.16 at A2 receptors [5]; 7.39 on A1 receptors [6] (Table 4, [3H]-CHA, rat cortical membranes per text). Moreover, the “selectivity for A1 receptors over A2 receptors” value at A1 receptors [6] (A1 vs A2) came to 170 fold.
As to `Nc1ncnc2nc[nH]c12` [Adenine, reference compound], the Kb on A2 receptors [7] is 570 µM; on A1 receptors [9], over 1000 µM. Besides, in assay [8], the “antagonism of adenosine-induced cyclic Amp accumulation” value is listed as “specific competitive antagonism”. Moreover, at A1 receptors [10], the pKi is under 4.00.
Regarding `Cn1c(=O)c2[nH]c(-c3ccccc3)nc2n(C)c1=O` [8-phenyltheophylline (8-PT), 8-phenyltheophylline, reference compound], in the assay on A2 adenosine receptors, the “antagonism of the effects of adenosine agonists in relaxing the taenia caecum” value is listed as “did antagonize the effects of agonists at low concentrations” and the “sensitization of the tissue (larger agonist response)” value was “Sensitization is also observed”. The “selectivity among adenosine receptors” value in the assay on adenosine receptor is “non-selective adenosine receptor antagonist”.

As a reminder, the pKi is the negative decadic logarithm of the Ki, by convention in mol/L.
